How the values were obtained:
PDE7 [1] = experiment: In vitro autoradiography of rat brain sections with [^11C]MTP38; assay type: binding, Sprague-Dawley rats
Description: (§1) In vitro autoradiography was performed using 20-μm-thick fresh-frozen brain sections derived from Sprague-Dawley rats and rhesus monkeys. The sections were preincubated for 10 min in 50 mM Tris-HCl buffer (pH 7.4) at room temperature. These samples were then incubated for 60 min at room temperature in fresh buffer containing [^11C]MTP38 (2 nM) with or without unlabeled MTP38 (10 μM), MTP-X (4 μM), or MT-3014 (40 nM). The concentrations of MTP-X and MT-3014 were more than 400-fold of reported IC50 values of these agents. After the incubation, the brain sections were immersed twice in cold buffer for 3 min, dipped in cold distilled water for 10 s, and dried with warm airflow. Then the sections were contacted with imaging plates (BAS-MS2025, Fujifilm, Tokyo, Japan) for 60 min. The imaging plates were scanned with an imaging plate reader (BAS5000, Fujifilm, Tokyo, Japan), and the images were analyzed with the MultiGuage software (ver. 3.0, Fujifilm, Tokyo, Japan).

PDE7 [2] = system: PDE7; set-up: method as in PMID 26330158; conditions: living rodent brains; cited from earlier work
PDE7 [3] = experiment: In vitro autoradiography of monkey brain sections with [^11C]MTP38; assay type: binding, rhesus monkeys; conditions: 2 nM
Description: as §1

PDE7 [4] = experiment: PET imaging in rats with [^11C]MTP38; assay type: in vivo, Wistar rats
Description: Each rat was scanned multiple times with a shortest interval of 1 month. Rats were anesthetized with isoflurane (3% for induction and 2% for maintenance) throughout the experiment. The tail vein was cannulated for radioligand injection. Body temperature was maintained at around 37 °C using a heating pad. The head of the rat was fixed at the center of the field of view of an animal PET scanner (microPET Focus220, Siemens Medical Solutions, Malvern, USA). A 90-min list-mode data acquisition was started simultaneously with intravenous administration of [^11C]MTP38. The list-mode data were sorted into 3D sinograms, which were then Fourier-rebinned into 2D sinograms (frames: 10 s × 6, 30 s × 8, 1 min × 5, 2 min × 10, and 5 min × 12). The sinograms were reconstructed with a filtered back-projection algorithm using a Hanning filter with a cut-off at the Nyquist frequency (0.5 mm^−1).
Along with baseline scans, we conducted blockade PET experiments according to the following pretreatment protocols: (1) unlabeled MTP38 (0.5 mg/kg) was administered intravenously at 2 min before radioligand injection, and (2) MTP-X (100 mg/kg) was administered orally at 1 h before radioligand injection.
PET images were co-registered manually onto the magnetic resonance (MR) template image. Details of co-registration were described elsewhere. Regions of interest (ROIs) were placed on the striatum as a target region and on the cerebellum (gray matter) as a reference region according to the expression of PDE7B mRNA in the rat brain [6], and time-activity curves (TACs) were generated for each ROI. Radioactivity in the brain was normalized with injected radioactivity and body weight, and expressed as standardized uptake value (SUV). Then the SUV ratio between the striatum and cerebellum was obtained to estimate the radioligand binding in the target region in baseline and blockade experiments.

PDE7 [5] = experiment: PET imaging in monkeys with [^11C]MTP38; assay type: in vivo, rhesus monkeys; conditions: for Striatal BPND: MRTMo, cerebellar reference
Description: Each monkey underwent multiple PET scans with intervals longer than 2 weeks. The monkeys were given an intramuscular injection of 0.04 mg/kg of atropine sulfate at 1.5 h before radioligand injection. They were subsequently anesthetized with an intramuscular injection of ketamine (5 mg/kg) and xylazine (0.5 mg/kg), intubated, and kept anesthetized with 1–2% isoflurane. Heart rate, electrocardiogram, body temperature, blood oxygen saturation level, and end-tidal CO2 were monitored during the PET scan. The monkeys were placed on a bed in a supine position, and the head was fixed at the center of the field of view of a microPET scanner Focus220. A transmission scan was performed for about 20 min using a ^68Ge-^68Ga point source. A 90-min list-mode data acquisition was started simultaneously with intravenous administration of [^11C]MTP38 via a saphenous vein cannula. All list-mode data were sorted into 3D sinograms, which were then Fourier-rebinned into 2D sinograms (frames: 10 s × 6, 30 s × 8, 1 min × 5, 2 min × 10, and 5 min × 12). The images were corrected for attenuation and reconstructed with a filtered back-projection algorithm using a Hanning filter with a cut-off at the Nyquist frequency (0.5 mm^−1).
Along with baseline scans, we carried out blocking PET experiments according to the following pretreatment protocols: (1) unlabeled MTP38 was administered as an intravenous bolus (0.075 mg/kg) at 1 h before radioligand injection followed by continuous infusion at a rate of 0.3 mg/kg/h until the end of the PET scan, and (2) MTP-X (0.3–30 mg/kg) was administered orally at 2 or 6 h before radioligand injection.
(§2) PET scans for monkeys at baseline and following pretreatment with unlabeled MTP38, and 3, 10, 30 mg/kg of MTP-X were performed along with arterial blood sampling to obtain a metabolite-corrected input function. In total, 22 arterial blood samples were collected manually with heparinized syringes via a saphenous artery contralateral to the radioligand injection. Sampling was performed at 10, 20, 30, 40, 50, 60, 75, 90, 105, 120, 150, 180, and 210 s and at 4, 5, 10, 20, 30, 45, 60, 75, and 90 min after radioligand injection. Blood samples were then placed on ice and divided into two aliquots, one of which was centrifuged with a refrigerated centrifuge (15,000×g, 3 min, 4 °C) to obtain plasma.
PET images were co-registered onto the individual MR images. ROIs were placed on the prefrontal and medial frontal cortices, hippocampus, amygdala, striatum (caudate + putamen), nucleus accumbens, thalamus, cerebellum (gray matter), and brainstem. TACs in the baseline and blockade experiments were generated for each ROI.
Regional TACs were examined by several analytical methods to calculate the regional total distribution volume (VT), which represents the sum of non-specific and specific radioligand binding. Compartment model (1- or 2-tissue) and Logan’s graphical analyses were employed for describing the radioligand kinetics in the brain. The fractional blood volume was fixed at 0.05. For compartment model analyses, an optimal model was chosen on the basis of Akaike’s information criterion (AIC) and model selection criterion (MSC). For graphical analyses, an equilibration time t* was determined so that by the maximum error from the regression within the linear segment was considered to be 10% for each TAC. Time stability of VT was investigated by truncating the data duration stepwise from 90 min to 30 min. The VT values with or without pretreatment with a blocker were then compared. We also validated the use of the cerebellum as a reference tissue by this comparison, in addition to the autoradiographic findings, in monkey brain slices. The non-displaceable binding potential (BPND) was calculated by the original multilinear reference tissue model (MRTMO). t* was determined in the same manner as Logan’s graphical analysis. […]

[6] = Radiometabolite analysis of arterial plasma; assay type: in vivo, rhesus monkeys; conditions: monkey; 90 min after injection
Description: as §2
Radioactivity in blood and plasma was measured with an auto-gamma counter (wizard 2480, PerkinElmer, Waltham, MA, USA). […] An aliquot of supernatant (< 1 mL) was injected into an HPLC system (JASCO, Tokyo, Japan) equipped with a radioactivity detector (column: CAPCELL PAK AQ, 5 μm, 10 × 250 mm; column temperature: room temperature; mobile phase: 45% CH3CN; flow rate: 6.0 mL/min). The fraction of the parent [^11C]MTP38 was calculated as a ratio of the peak area of MTP38 to the total area of peaks found on the radiochromatograms. Then, an arterial input function was determined by quantifying the metabolite-corrected arterial plasma radioactivity concentration.

[7] = monkey, baseline, Logan's graphical analysis, means of two animals

With `Cc1nc2ccc(F)cc2nc1-c1cc2nc(N3CC[C@@H](F)C3)cc(NCC(C)(C)O)n2n1` [MT-3014, reference compound] the “effect of blocker on striatal radioactivity of [^11C]MTP38” value (PDE7 [1]; [^11C]MTP38 2 nM, unlabeled MTP38 10 μM, MTP-X 4 μM, MT-3014 40 nM) was “did not change the radioligand binding”.
For `O=C1Nc2c(Cl)ccc(OCC[18F])c2C2(CCCCC2)N1` [[^18F]MICA-003], the in vivo metabolism (PDE7 [2]) is given as “rapid metabolic conversion to a brain-entering radiomolecule”.
With `C[C@@H]1CC[C@H](C)N(c2nnc3c(N)ncc([11C]#N)n23)C1` [[^11C]MTP38] the “radioligand reactivity in the striatum” value (PDE7 [1]; 2 nM) was “high radioligand reactivity in the striatum”, the “radioligand reactivity in the striatum” value (PDE7 [3]) was “high radioligand reactivity in the striatum” and the “striatum-to-cerebellum ratio of SUV” value (PDE7 [4]; baseline, plateau from 5 min) was roughly 1.5. The “SUV in the striatum and cerebellum at 90 min” value (PDE7 [4]; iv, 90 min) was “below 1.0”, the “peak SUV in the striatum and cerebellum” value (PDE7 [4]; iv, baseline) was “exceeding 4.0” and the “time of SUV peak after injection” value (PDE7 [4]; iv, striatum and cerebellum) was no more than 1 min. For the same compound, the “Striatal BPND” value (PDE7 [5]; monkey #1, baseline) was 0.409, the “Striatal BPND” value (PDE7 [5]; monkey #2, baseline) was 0.287 and the “Regional VT, AMY (amygdala)” value (PDE7 [5]; [7]) was 2.50 mL/cm^3. The “Regional VT, BS (brainstem)” value (PDE7 [5]; [7]) was 3.13 mL/cm^3, the “Regional VT, CB (cerebellum)” value (PDE7 [5]; [7]) was 2.69 mL/cm^3 and the “Regional VT, HIP (hippocampus)” value (PDE7 [5]; [7]) was 2.38 mL/cm^3. The “Regional VT, MFC (medial frontal cortex)” value (PDE7 [5]; [7]) was 3.27 mL/cm^3, the “Regional VT, NAc (nucleus accumbens)” value (PDE7 [5]; [7]) was 2.97 mL/cm^3 and the “Regional VT, PFC (prefrontal cortex)” value (PDE7 [5]; [7]) was 2.93 mL/cm^3. The “Regional VT, STR (striatum)” value (PDE7 [5]; [7]) was 3.59 mL/cm^3, the “Regional VT, THA (thalamus)” value (PDE7 [5]; [7]) was 3.03 mL/cm^3 and the “k3 (2-tissue compartment model)” value (PDE7 [5]; monkey, some ROIs including the striatum, model failed to estimate VT) was less than 0.0001 min⁻¹. For the same compound, the “maximal SUV in brain” value (PDE7 [5]; monkeys, iv) was roughly 5, the “time of brain radioactivity peak after injection” value (PDE7 [5]; monkeys, iv) was 3 to 4 min and the “fraction of unmetabolized [^11C]MTP38 of total radioactivity in plasma” value [6] was 27.2%.
